According to patent publication US9328075B2 (St. Jude Children's Research Hospital, priority 2011, dated 2016):

Columns and labels:
[1] = molecular target: IRdRp (PB2, PB1, PA and NP from the strain A/Vietnam/1203/04 (H1N1)) (Influenza A virus, UniProt Q5EP34); experiment: cell-based; parameters: species or system influenza A/Vietnam/1203/04 (H1N1)
in vitro [2] = details: human
in vitro [3] = details: dog
[4] = test system: A/Puerto Rico/8/34 (H1N1); experiment: microbe, parasite or virus in culture; details: Influenza A virus, H1N1, MDCK, 48 h, read-out: Growth Inhibition (%) 20 μM 48 h

Row | SMILES | IC50 [1] | CC50 at 72 h (in vitro [2]) | CC50 at 72 h (in vitro [3]) | inhibition at 20 µM [4]
1 | CC1CCCCC1NC(=O)c1nc(-c2ccccn2)nc(O)c1O (stereo not shown) | 5.5 µM | < 25 µM | 5.5 µM | 97%
2 | CC(C)(C)c1cccc(NC(=O)c2nc(-c3ccccn3)nc(O)c2O)c1 | 5.9 µM | < 25 µM | > 25 µM | 94%
3 | COc1ccc(NC(=O)c2nc(-c3ccccn3)nc(O)c2O)c(C)c1 | 10 µM | < 25 µM | > 25 µM | 0%
4 | O=C(NC1CCCc2ccccc21)c1nc(-c2ccccn2)[nH]c(=O)c1O (stereo not shown) | 3.6 µM | 2.6 µM | 7 µM | 97%
5 | O=C(NCc1cccc2ccccc12)c1nc(-c2ccccn2)[nH]c(=O)c1O | 9.1 µM | < 25 µM | > 25 µM | 94%
6 | CC(C)CC(C)NC(=O)c1nc(-c2ccccn2)nc(O)c1O (stereo not shown) | 12.9 µM | > 25 µM | > 25 µM | 50%
7 | CCCCC(CC)CNC(=O)c1nc(-c2ccccn2)nc(O)c1O (stereo not shown) | 4.3 µM | < 25 µM | > 25 µM | 94%
8 | Cc1cccc(NC(=O)c2nc(-c3ccccn3)nc(O)c2O)c1 | 27.1 µM | < 25 µM | > 25 µM | 75%
9 | Cc1ccccc1NC(=O)c1nc(-c2ccccn2)nc(O)c1O | 8.9 µM | > 25 µM | > 25 µM | 94%
10 | CCCCCC(C)NC(=O)c1nc(-c2ccccn2)nc(O)c1O (stereo not shown) | 14.1 µM | < 25 µM | > 25 µM | 88%
11 | CC(C)(C)CCNC(=O)c1nc(-c2ccccn2)nc(O)c1O | 10.1 µM | < 25 µM | > 25 µM | 88%
12 | CC1CCC(NC(=O)c2nc(-c3ccccn3)[nH]c(=O)c2O)CC1 (stereo not shown) | 5.6 µM | < 25 µM | > 25 µM | 88%
13 | CC(CNC(=O)c1nc(-c2ccccn2)nc(O)c1O)c1ccccc1 (stereo not shown) | 20.5 µM | < 25 µM | > 25 µM | 50%
